# Measured values as given in US12358901B2, “KV3 modulators” (priority 2018, dated 2025).
# Tests used:
# [1] = target: human Kv3.1 channels (hKv3.1) (Homo sapiens, UniProt P48547); assay: cell-based; format: cell-based; settings: for Kv3.1 pEC50: HEK-hKv3.1 cells, -15 mV voltage step, normalised to 50 microM reference compound; for Kv3.1 max R %: maximum response relative to reference compound (50 microM)
# From the text: The ability of the compounds of the invention to modulate the voltage-gated potassium channel subtypes Kv3.3/Kv3.2/Kv3.1 may be determined using the following assay. Analogous methods may be used to investigate the ability of the compounds of the invention to modulate other channel subtypes.
# To assess compound effects on human Kv3.1 channels (hKv3.1):
# Human embryonic kidney (HEK)-hKv3.1 cell line is generated by transfecting HEK-293 cells with an expression vector with human Kv3.1 (NM_004976.4). Cells are cultured with MEM supplemented with 10% Heat-Inactivated FBS, 2 mM L-glutamine, 1% Penicillin-Streptomycin, and 0.6 mg/ml of Geneticin (G418). HEK-hKv3.1b cells were amplified in T175 cm2 flask at 37° C. with 5% CO2, using MEM amplification medium, containing the G418 selection antibiotic (0.6 mg/ml). Cells were detached every 3-4 days, using DPBS to wash twice the flask, then TrypLE to dislodge the cells, and re-plated at a density of 2-4×10^6 cells/flask.
# The day of the experiment, cells are removed from the incubator and the culture medium removed. Cells are washed with 5 ml of Dulbecco's PBS (DPBS) calcium and magnesium free and detached by the addition of 3 ml Versene (Invitrogen, Italy) followed by a brief incubation at 37° C. for 5 minutes. The flask is tapped to dislodge cells and 10 ml of DPBS containing calcium and magnesium is added to prepare a cell suspension. The cell suspension is then placed into a 15 ml centrifuge tube and centrifuged for 2 min at 1200 rpm. After centrifugation, the supernatant is removed and the cell pellet re-suspended in 4 ml of DPBS containing calcium and magnesium using a 5 ml pipette to break up the pellet. Cell suspension volume is then corrected to give a cell concentration for the assay of approximately 3 million cells per ml.
# Experiments are conducted at r.t. using IonWorks Quattro™ planar array electrophysiology technology (Molecular Devices Corp.) with PatchPlate™ PPC. Stimulation protocols and data acquisition are carried out using a microcomputer (Dell Pentium 4). Planar electrode hole resistances (Rp) are determined by applying a 10 mV voltage step across each well. These measurements are performed before cell addition. After cell addition and seal formation, a seal test is performed by applying a voltage step from −80 mV to −70 mV for 160 ms. Following this, amphotericin-B solution is added to the intracellular face of the electrode to achieve intracellular access. Cells are held at −70 mV. Leak subtraction is conducted in all experiments by applying 50 ms hyperpolarizing (10 mV) prepulses to evoke leak currents followed by a 20 ms period at the holding potential before test pulses.
# For hKv3.2 and hKv3.1, assays from the holding potential of −70 mV, a first test pulse at −15 mV was applied for 100 ms and after 100 ms at −70 mV a second pulse at +40 mV was applied for 50 ms. Cells were then maintained for 100 ms at −100 mV and another pulse from −70 mV to +40 mV (duration 50 ms) was applied to clamp later the voltage at −40 mV during 200 ms
# The intracellular solution contains the following (in mM): K-gluconate 100, KCl 54, MgCl2 3.2, HEPES 5, adjusted to pH 7.3 with KOH. Amphotericin-B solution is prepared as 50 mg/ml stock solution in DMSO and diluted to a final working concentration of 0.1 mg/ml in intracellular solution. The external solution is Dulbecco's Phosphate Buffered Saline (DPBS) and contained the following (in mM): CaCl2 0.90, KCl 2.67, KH2PO4 1.47, MgCl·6H2O 0.493, NaCl 136.9, Na3PO4 8.06, with a pH of 7.4.
# Compounds of use in the invention (or reference compounds such as N-cyclohexyl-N-[(7,8-dimethyl-2-oxo-1,2-dihydro-3-quinolinyl)methyl]-N-phenylurea) are dissolved in dimethylsulfoxide (DMSO) at a stock concentration of 10 mM. These solutions are further diluted with DMSO using a Biomek FX (Beckman Coulter) in a 384 compound plate. Each dilution (1 μL) is transferred to another compound plate and external solution containing 0.05% pluronic acid (66 μL) is added. […]
# [2] = Determination of brain tissue binding (equilibrium dialysis); format: in vitro ADME; settings: Sprague Dawley, rat whole brain homogenate, 5 h at 37° C.
# Protocol: Sprague Dawley rat whole blood, collected on the week of the experiment using K3-EDTA as an anti-coagulant, is diluted with isotonic phosphate buffer 1:1 (v/v). Sprague Dawley rat whole brain, stored frozen at −20° C., is thawed and homogenised in artificial cerebrospinal fluid (CSF) 1:2 (w/v).
# An appropriate amount of test compound is dissolved in DMSO to give a 10 millimolar solution. Further dilutions, to obtain a 166.7 micromolar working solution are then prepared using 50% acetonitrile in MilliQ water. This working solution is used to spike the blood to obtain a final concentration of 0.5 micromolar in whole blood. Similarly, the working solution is used to spike brain samples to obtain a final concentration of 5 micromolar in whole brain. From these spiked blood and brain preparations, control samples (n=3), are immediately extracted and used to calculate the initial recovery of the test items.
# 150 microL of compound-free buffer (isotonic phosphate buffer for blood or artificial CSF buffer for brain) is dispensed in one half-well and 150 microL of spiked matrix (blood or brain) is loaded in the other half-well, with the two halves separated by a semi-permeable membrane. After an equilibration period of 5 h at 37° C., 50 microL of dialysed matrix (blood or brain) is added to 50 microL of corresponding compound-free buffer, and vice-versa for buffer, such that the volume of buffer to matrix (blood or brain) remains the same. Samples are then extracted by protein precipitation with 300 microL of acetonitrile containing rolipram (control for positive ionization mode) or diclofenac (control for negative ionization mode) as internal standards and centrifuged for 10 min at 3000 rpm. Supernatants are collected (100 microL), diluted with 27% AcN in MilliQ water (200 microL) and then injected into an HPLC-MS/MS or UPLC-MS/MS system to determine the concentration of test compound present.
# Blood and brain tissue binding are then determined using the following formulas: Afu=Buffer/Blood or Afu=CSF/Brain
# Where Afu=apparent fraction unbound; Buffer=analyte/internal standard ratio determined in the buffer compartment; Blood=analyte/internal standard ratio determined in the blood compartment; Brain=analyte/internal standard ratio determined in the brain compartment.
# [formula] where: fucr=Fraction unbound corrected; D=matrix dilution factor (D=2 for blood and D=3 for brain).
# Then: % Binding=(1−fucr)×100 % Unbound=100−% Bound Brain/Blood Partition Ratio (Kbb) Determination
SMILES,Kv3.1 pEC50 [1],Kv3.1 max R % [1] [%],"fraction unbound at 5 h, 5 micromolar [2]",pEC50 and maxR in the Kv3.1 assay (in words) [1]
"CC1(C)NC(=O)N(c2cnc(Oc3cccc4c3C(C)(C)CO4)cn2)C1=O [Example 2, 3-[5-[(3,3-dimethyl-2H-benzofuran-4-yl)oxy]pyrazin-2-yl]-5,5-dimethyl-imidazolidine-2,4-dione]",4.68,149,,
"CC[C@@]1(C)NC(=O)N(c2cnc(Oc3cccc4c3C3(CC3)CO4)cn2)C1=O [Example 3, (5R)-5-ethyl-5-methyl-3-(5-spiro[2H-benzofuran-3,1′-cyclopropane]-4-yloxypyrazin-2-yl)imidazolidine-2,4-dione]",5.15,205,,
"CC1(C)NC(=O)N(c2cnc(Oc3cccc4c3C3(CC3)CO4)cn2)C1=O [Example 4, 5,5-dimethyl-3-(5-spiro[2H-benzofuran-3,1′-cyclopropane]-4-yloxypyrazin-2-yl)imidazolidine-2,4-dione]",5.17,170,,
"CC[C@@]1(C)NC(=O)N(c2cnc(Oc3ccc(C)c4c3C3(CC3)CO4)cn2)C1=O [Example 5, (5R)-5-ethyl-5-methyl-3-[5-(7-methylspiro[2H-benzofuran-3,1′-cyclopropane]-4-yl)oxypyrazin-2-yl]imidazolidine-2,4-dione]",5.69,149,,
"CC[C@@]1(C)NC(=O)N(c2cnc(Oc3cccc4c3C(C)(C)CO4)cn2)C1=O [Example 6, (5R)-3-[5-[(3,3-dimethyl-2H-benzofuran-4-yl)oxy]pyrazin-2-yl]-5-ethyl-5-methyl-imidazolidine-2,4-dione]",4.75,165,,
"Cc1ccc(Oc2cnc(N3C(=O)NC(C)(C)C3=O)cn2)c2c1OCC2(C)C [Example 7, 5,5-dimethyl-3-[5-[(3,3,7-trimethyl-2H-benzofuran-4-yl)oxy]pyrazin-2-yl]imidazolidine-2,4-dione]",5.12,134,,
"CC[C@@]1(C)NC(=O)N(c2cnc(Oc3ccc(C)c4c3C(C)(C)CO4)cn2)C1=O [Example 8, (5R)-5-ethyl-5-methyl-3-[5-[(3,3,7-trimethyl-2H-benzofuran-4-yl)oxy]pyrazin-2-yl]imidazolidine-2,4-dione]",5.29,119,,
"CC[C@H]1NC(=O)N(c2cnc(Oc3cccc4c3C(C)(C)CO4)cn2)C1=O [Example 11, (5R)-3-[5-[(3,3-dimethyl-2H-benzofuran-4-yl)oxy]pyrazin-2-yl]-5-ethyl-imidazolidine-2,4-dione]",4.89,165,,
"CC[C@H]1NC(=O)N(c2cnc(Oc3ccc(C)c4c3C(C)(C)CO4)cn2)C1=O [Example 12, (5R)-5-ethyl-3-[5-[(3,3,7-trimethyl-2H-benzofuran-4-yl)oxy]pyrazin-2-yl]imidazolidine-2,4-dione]",5.56,118,,
"Cc1ccc(Oc2cnc(N3C(=O)NC4(CCC4)C3=O)cn2)c2c1OCC21CC1 [Example 13, 7-[5-(7-methylspiro[2H-benzofuran-3,1′-cyclopropane]-4-yl)oxypyrazin-2-yl]-5,7-diazaspiro[3.4]octane-6,8-dione]",5.09,165,,
"Cc1ccc(Oc2cnc(N3C(=O)NC4(CC4)C3=O)cn2)c2c1OCC21CC1 [Example 14, 6-[5-(7-methylspiro[2H-benzofuran-3,1′-cyclopropane]-4-yl)oxypyrazin-2-yl]-4,6-diazaspiro[2.4]heptane-5,7-dione]",5.51,145,,
"Cc1ccc(Oc2ncc(N3C(=O)NC(C)(C)C3=O)cn2)cc1OC(F)(F)F [RE1, reference compound]",4.78,105,,
"Cc1ccc(Oc2ccc(N3C(=O)NC(C)(C)C3=O)cn2)cc1OC(F)(F)F [RE2, reference compound]",5.25,118,,
"Cc1ccc(Oc2ccc(N3C(=O)NC(C)(C)C3=O)nc2)cc1OC(F)(F)F [RE3, reference compound]",4.89,79,,
"Cc1ccc(Oc2cnc(N3C(=O)NC(C)(C)C3=O)cn2)cc1OC(F)(F)F [RE4, reference compound]",<4.3,24,,
"Cc1ccc(Oc2ccc(N3C(=O)NC(C)(C)C3=O)nc2)c2c1OCC21CC1 [RE7, reference compound]",5.56,130,0.023,
"Cc1ccc(Oc2cnc(N3C(=O)NC(C)(C)C3=O)nc2)c2c1OCC21CC1 [RE8, reference compound]",4.98,42,,
"Cc1ccc(Oc2ccc(N3C(=O)NC(C)(C)C3=O)nn2)c2c1OCC21CC1 [RE9, reference compound]",<4.3,16,,
"Cc1ccc(Oc2cncc(N3C(=O)NC(C)(C)C3=O)n2)c2c1OCC21CC1 [RE10, reference compound]",<4.3,22,,greatly reduced pEC50 and maxR
"CC[C@H]1NC(=O)N(c2ccc(Oc3ccc(C)c4c3C3(CC3)CO4)cn2)C1=O [RE12, reference compound]",5.6,149,0.019,
"CC[C@H]1NC(=O)N(c2ccc(Oc3cccc4c3C3(CC3)CO4)cn2)C1=O [RE14, reference compound]",5.2,150,0.058,
